Test results as given in US8026232B2, “Benzothiophene oxide derivative and salt thereof” (Toyama Chemical Co., Ltd., priority 2008, dated 2011).
Where a name gives a salt, the structure may show the parent alone.

Test: Test Example 1: concentration of compound A in plasma and brain after oral administration to rats
Format: in vivo, rat
Details: for Brain MRT (mean residence time) of the compound A / Brain T1/2 (elimination half-life) of the compound A / Plasma MRT (mean residence time) of the compound A / Plasma T1/2 (elimination half-life) of the compound A: rat (Crl: CD male), oral, without fasting, 56 mg/kg compound A maleate or 58 mg/kg compound A oxide maleate; for Brain MRT (mean residence time) of the compound A / Brain T1/2 (elimination half-life) of the compound A: compound A measured in brain; for Plasma MRT (mean residence time) of the compound A / Plasma T1/2 (elimination half-life) of the compound A: compound A measured in plasma
Procedure: In the compound A administration solution, the concentration of the compound A maleate was adjusted to be 14 mg/mL by dissolving the compound A maleate in a physiological saline solution. In the compound A oxide administration solution, the concentration of the compound A oxide maleate was adjusted to be 14.54 mg/mL by dissolving the compound A oxide maleate in a physiological saline solution.
Each of the administration solutions was orally administered to rats (Crl: CD strain male rat: 8 weeks old) without fasting. The dosage was set at 56 mg/kg for the compound A administration group and 58 mg/kg for the compound A oxide administration group.
At 0.25, 0.5, 1, 2, 5, 8, 10 and 12 hours after the administration, for each group, heparinized whole blood was collected from the aorta abdominalis under mild ether anesthesia, and then the rats were killed by exsanguination and the brains were excised.
The collected blood was centrifuged at 4° C. for 10 minutes at approximately 1600×g to obtain the plasma. To 100 μL of the resulting plasma was added 900 μL of distilled water containing 25 ng/mL of the internal standard substance and 25 μL of phosphoric acid, and the resulting mixture was stirred, followed by adding to a solid-phase extraction plate (Oasis HLB 10 mg or 30 mg, manufactured by Waters) which was conditioned with methanol and distilled water. The solid-phase extraction plate was washed with 2 mL of distilled water, followed by eluting with 2 mL of acetonitrile. The eluate was concentrated and dried-up and then dissolved in a mobile phase A solution, followed by centrifuging at 4° C. for 10 minutes at approximately 1600×g. The resulting supernatant was subjected to a liquid chromatography-tandem mass spectrometer to determine the concentration of the compound A in the plasma of each group.
The excised brains were homogenized with 25% ammonia water/methanol (1:49) (10-fold volume of the wet brain weight) and then 2 mL of the homogenate was centrifuged at 4° C. for 10 minutes at approximately 1600×g to separate the supernatant. To the sediment was added 2 mL of 25% ammonia water/methanol (1:49), followed by centrifuging at 4° C. for 10 minutes at approximately 1600×g. These supernatants were combined and concentrated and dried-up and then dissolved in 1 mL of distilled water containing 25 ng/mL of the internal standard substance. To the resulting solution was added 25 μL of phosphoric acid and the resulting mixture was stirred, followed by subjecting to a solid-phase extraction operation similar to that for the above plasma. The resulting eluate was concentrated and dried-up and then dissolved in the mobile phase A solution or 50% methanol, followed by centrifuging at 4° C. for 10 minutes at approximately 1600×g. The resulting supernatant was subjected to the liquid chromatography-tandem mass spectrometer to determine the concentration of the compound A in the brain of each group.
The following instruments and conditions were used for the measurement of the concentration of the compound A.

[1] = rat, oral administration of the compound A oxide, result in words

| Brain MRT (mean residence time) of the compound A [h] | Brain T1/2 (elimination half-life) of the compound A [h] | Plasma MRT (mean residence time) of the compound A [h] | Plasma T1/2 (elimination half-life) of the compound A [h] | concentration of the compound A in the plasma and brain [1] | residence time of the compound A in the body [1] | Structure (SMILES) |
| --- | --- | --- | --- | --- | --- | --- |
| 3.01 | 1.53 | 2.86 | 1.56 | – | – | O=C(O)/C=C\C(=O)O.OC1CN(CCCOCCc2ccc3sccc3c2)C1 [Compound A Maleate, 1-(3-(2-(1-benzothiophen-5-yl)ethoxy)propyl)azetidin-3-ol maleate, reference compound] |
| 5.72 | 2.28 | 5.41 | 2.69 | – | – | [O-][s+]1ccc2cc(CCOCCCN3CC(O)C3)ccc21 (stereo not shown) [Compound A oxide Maleate, 1-(3-(2-(1-benzothiophen-5-yl)ethoxy)propyl)azetidin-3-ol S-oxide maleate] |
| – | – | – | – | maintained at a high concentration | prolonged | [O-][s+]1ccc2cc(CCOCCCN3CC(O)C3)ccc21 (stereo not shown) [compound A oxide, 1-(3-(2-(1-benzothiophen-5-yl)ethoxy)propyl)azetidin-3-ol S-oxide] |
